Laboratory results: patent EP4631959A2, “NOVEL MINIGASTRIN-DERIVED CHOLECYSTOKININ 2 RECEPTOR BINDING MOLECULES FOR IMAGING AND TARGETED RADIOTHERAPY” (priority 2022, dated 2024)
Where two headings read alike, the source gives them in different places. Starred links: 1 amine or outer side, 2 acyl side, 3 side chain; linkers in the order of their positions; H or OH if unused. Non-standard residues stand in square brackets, D forms with d. Residues, ends and D or L forms follow the SMILES beside them. *: point of attachment. DOTAGA = O=C(O)CN1CCN(CC(=O)O)CCN(C(CCC(=O)*)C(=O)O)CCN(CC(=O)O)CC1; X2 = O=C(O)CN1CCN(CC(=O)O)CCN([C@H](CCC(=O)*)C(=O)O)CCN(CC(=O)O)CC1; Benzoyl(4-SiFtBu2) = CC(C)(C)[Si](F)(c1ccc(C(=O)*)cc1)C(C)(C)C; DOTA = O=C(O)CN1CCN(CC(=O)O)CCN(CC(=O)*)CCN(CC(=O)O)CC1; d(γGlu) = O=C(O)[C@@H](CCC(=O)[*:2])N[*:1]; 1Nal = N[C@@H](Cc1cccc2ccccc12)C(=O)O; PEG6 = NCCOCCOCCOCCOCCOCCOCCC(=O)O; NMeNle = CCCC[C@H](NC)C(=O)O; Nle = CCCC[C@H](N)C(=O)O; dDap = NC[C@@H](N)C(=O)O

Legend:
CCK-2R = biological target: T1, CCK-2R (Rattus norvegicus, UniProt P30553); experiment: Determination of IC50: CCK-2R affinity on AR4-2J cells, competition with [^177Lu]Lu-DOTA-PP-F11N; assay type: binding
T1 construct: The CCK-2R expressing rat pancreatic tumor cells AR4-2J; host or cells: AR4-2J rat pancreatic tumor cells
T1 sequence (P30553 1-452): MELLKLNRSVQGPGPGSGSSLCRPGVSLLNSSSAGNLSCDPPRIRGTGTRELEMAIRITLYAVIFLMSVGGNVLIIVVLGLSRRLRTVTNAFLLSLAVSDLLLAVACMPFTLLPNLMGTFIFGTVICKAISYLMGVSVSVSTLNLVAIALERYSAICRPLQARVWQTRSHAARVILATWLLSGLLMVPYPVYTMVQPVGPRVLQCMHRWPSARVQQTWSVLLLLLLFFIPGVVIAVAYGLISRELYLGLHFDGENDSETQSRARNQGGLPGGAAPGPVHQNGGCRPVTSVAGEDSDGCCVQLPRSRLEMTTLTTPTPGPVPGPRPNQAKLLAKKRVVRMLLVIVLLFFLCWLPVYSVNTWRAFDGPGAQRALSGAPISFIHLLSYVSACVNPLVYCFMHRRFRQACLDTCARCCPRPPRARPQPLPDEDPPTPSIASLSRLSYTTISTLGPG
Procedure, shortened: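 Competitive displacement of 0.3 pmol/well [177Lu]Lu-DOTA-PP-F11N by compounds (10^-10 to 10^-4 M) on AR4-2J cells in BSA-supplemented medium, 3 h at 37 °C. Free label was collected from medium plus PBS rinse, and cell-bound label was recovered with 1 M NaOH, both measured by γ-counter. Each IC50 was determined twice, in triplicate.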

[1] = n-Octanol-PBS distribution coefficient (logD7.4); assay type: physicochemical; settings: pH = 7.4, ^177Lu-labeled
Protocol: Approximately 1 MBq of the labeled tracer was dissolved in 1 mL of a 1/1 mixture (v/v) of phosphate buffered saline (PBS, pH = 7.4) and n-octanol in an Eppendorf tube (1.5 mL). After vigorous mixing of the suspension for 3 min at rt, the vial was centrifuged at 9,000 rpm for 5 min (Biofuge 15, Heraeus Sepatech, Osterode, Germany) and 200 µL aliquots of both layers were measured in a γ-counter. The experiment was repeated at least five times.

[2] = read-out: IC50 [nM] (n = 3), ^natLu-labeled; AR4-2J cells; ^natLu-labeled
[3] = AR4-2J cells; ^natLu-labeled; read-out: IC50 [nM] (n = 3), ^natLu-labeled

| Compound | IC50 (CCK-2R; [2]) | logD7.4 (n ≥ 5), ^177Lu-labeled [1] | IC50 (CCK-2R; [3]) |
| --- | --- | --- | --- |
| CCCC[C@H](NC(=O)[C@H](Cc1c[nH]c2ccccc12)NC(=O)CNC(=O)[C@H](Cc1ccc(O)cc1)NC(=O)[C@H](C)NC(=O)[C@@H](CCC(=O)O)NC(=O)[C@@H](CCC(=O)O)NC(=O)[C@@H](CCC(=O)O)NC(=O)[C@@H](CCC(=O)O)NC(=O)[C@@H](CNC(=O)c1ccc([Si](F)(C(C)(C)C)C(C)(C)C)cc1)NC(=O)[C@@H](CCC(=O)O)NC(=O)[C@@H](CCC(=O)O)NC(=O)CCC(C(=O)O)N1CCN(CC(=O)O)CCN(CC(=O)O)CCN(CC(=O)O)CC1)C(=O)N[C@@H](CC(=O)O)C(=O)N[C@@H](Cc1ccccc1)C(N)=O (stereo partly drawn) [DOTAGA-MG-SiFA-9, DOTAGA-glu-[dap(SiFA)^2]F11N] ({DOTAGA}-[dE][dE][dDap](Benzoyl(4-SiFtBu2))[dE][dE][dE][dE]AYGW[Nle]DF-NH2) | 90 ± 2.3 nM | −2.67 ± 0.05 | – |
| CCCC[C@H](NC(=O)[C@H](Cc1c[nH]c2ccccc12)NC(=O)CNC(=O)[C@H](Cc1ccc(O)cc1)NC(=O)[C@H](C)NC(=O)[C@@H](CCC(=O)O)NC(=O)[C@@H](CCC(=O)O)NC(=O)[C@@H](CNC(=O)c1ccc([Si](F)(C(C)(C)C)C(C)(C)C)cc1)NC(=O)[C@@H](CCC(=O)O)NC(=O)[C@@H](CCC(=O)O)NC(=O)[C@@H](CCC(=O)O)NC(=O)[C@@H](CCC(=O)O)NC(=O)CCC(C(=O)O)N1CCN(CC(=O)O)CCN(CC(=O)O)CCN(CC(=O)O)CC1)C(=O)N[C@@H](CC(=O)O)C(=O)N[C@@H](Cc1ccccc1)C(N)=O (stereo partly drawn) [DOTAGA-MG-SiFA-7, DOTAGA-glu-[dap(SiFA)^4]F11N] ({DOTAGA}-[dE][dE][dE][dE][dDap](Benzoyl(4-SiFtBu2))[dE][dE]AYGW[Nle]DF-NH2) | 156 ± 4 nM | −2.03 ± 0.10 | – |
| CCCC[C@@H](C(=O)N[C@@H](CC(=O)O)C(=O)N[C@@H](Cc1cccc2ccccc12)C(N)=O)N(C)C(=O)[C@H](Cc1c[nH]c2ccccc12)NC(=O)CCOCCOCCOCCOCCOCCOCCNC(=O)CC[C@@H](NC(=O)CN1CCN(CC(=O)O)CCN(CC(=O)O)CCN(CC(=O)O)CC1)C(=O)O [DOTA-CCK-79, DOTA-γ-glu-(PEG)5-Trp-(N-Me)Nle-Asp-1-Nal-NH2] ({DOTA-d(γGlu)-PEG6}-W[NMeNle]D[1Nal]-NH2) | – | −2.59 ± 0.05 | 7 ± 0.6 nM |
| CCCC[C@@H](C(=O)N[C@@H](CC(=O)O)C(=O)N[C@@H](Cc1cccc2ccccc12)C(N)=O)N(C)C(=O)[C@H](Cc1c[nH]c2ccccc12)NC(=O)CNC(=O)CNC(=O)[C@H](C)NC(=O)CC[C@@H](NC(=O)CN1CCN(CC(=O)O)CCN(CC(=O)O)CCN(CC(=O)O)CC1)C(=O)O [DOTA-CCK-60, DOTA-γ-glu-Ala-(Gly)2-Trp-(N-Me)Nle-Asp-1-Nal-NH2] ({DOTA-d(γGlu)}-AGGW[NMeNle]D[1Nal]-NH2) | – | −2.56 ± 0.09 | 7.9 ± 0.43 nM |
| CCCC[C@H](NC(=O)[C@H](Cc1c[nH]c2ccccc12)NC(=O)CNC(=O)[C@H](Cc1ccc(O)cc1)NC(=O)[C@H](C)NC(=O)CC[C@@H](NC(=O)CC[C@@H](NC(=O)[C@@H](CNC(=O)c1ccc([Si](F)(C(C)(C)C)C(C)(C)C)cc1)NC(=O)CC[C@@H](NC(=O)CC[C@@H](NC(=O)CC[C@@H](NC(=O)CC[C@@H](NC(=O)CC[C@H](C(=O)O)N1CCN(CC(=O)O)CCN(CC(=O)O)CCN(CC(=O)O)CC1)C(=O)O)C(=O)O)C(=O)O)C(=O)O)C(=O)O)C(=O)O)C(=O)N[C@@H](CC(=O)O)C(=O)N[C@@H](Cc1ccccc1)C(N)=O [DOTAGA-MG-SiFA-15, DOTAGA-γ-glu-[dap(SiFA)^4]γ-F11N] ({X2-d(γGlu)-d(γGlu)-d(γGlu)-d(γGlu)}-[dDap](Benzoyl(4-SiFtBu2))[d(γGlu)][d(γGlu)]AYGW[Nle]DF-NH2) | – | −2.34 ± 0.05 | 89.7 ± 14.5 nM |
| CCCC[C@H](NC(=O)[C@H](Cc1c[nH]c2ccccc12)NC(=O)CNC(=O)[C@H](Cc1ccc(O)cc1)NC(=O)[C@H](C)NC(=O)[C@@H](CCC(=O)O)NC(=O)[C@@H](CNC(=O)c1ccc([Si](F)(C(C)(C)C)C(C)(C)C)cc1)NC(=O)[C@@H](CCC(=O)O)NC(=O)[C@@H](CCC(=O)O)NC(=O)[C@@H](CCC(=O)O)NC(=O)[C@@H](CCC(=O)O)NC(=O)[C@@H](CCC(=O)O)NC(=O)CCC(C(=O)O)N1CCN(CC(=O)O)CCN(CC(=O)O)CCN(CC(=O)O)CC1)C(=O)N[C@@H](CC(=O)O)C(=O)N[C@@H](Cc1ccccc1)C(N)=O (stereo partly drawn) [DOTAGA-MG-SiFA-6, DOTAGA-glu-[dap(SiFA)^5]F11N] ({DOTAGA}-[dE][dE][dE][dE][dE][dDap](Benzoyl(4-SiFtBu2))[dE]AYGW[Nle]DF-NH2) | 155 ± 18 nM | −1.95 ± 0.09 | – |
